# Test system: PC-3 multi-cell spheroids, viability
# Experiment: Anticancer human tumor PC-3 cell line growth inhibition [IpAb];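 further: spheroids exposed to compounds for 7 days before readout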;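 on viability, T/C: 100% = DMSO vehicle control wells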
# Conditions: for IC50: curve of first compound; for viability, T/C: stronger effect = lower value
# Description: Combinatorial screen of targeted agents with ipatasertib and abemaciclib in multi-cell type tumor spheroids
# A high-throughput screen of multi-cell type tumor spheroids was designed to identify active combinations of targeted small molecules and ipatasertib or abemaciclib. Complex spheroids include a stromal component modeled by human endothelial cells (HUVEC) and fibroblasts modeled by human mesenchymal stem cells (MSCs). The concentration ranges selected for each drug and investigational agent were based upon clinically achievable concentrations if the clinical Cmax of the agent was known.
# Compounds. The drugs and investigational agents: ipatasertib (NSC767898), abemaciclib(NSC768073), selumetinib (NSC741078), trametinib (758246), adavosertib (NSC754352), everolimus (NSC733504), sapanisertib (NSC764658), vemurafenib (NSC761431), venetoclax (NSC766270), copanlisib (NSC809693), apelisib (NSC765974), palbociblib (NSC758247), vemurafenib (NSC761431), dabrafenib (NSC764134), ravoxertinib (NSC781343), BMS-387032 (NSC767048), sotorasib (NSC818433), talazoparib (NSC767125) and afursertib (NSC778305), were obtained from the National Cancer Institute (NCI) Developmental Therapeutics Program Chemical Repository. The FDA-approved anticancer drug set is available from the NCI Developmental Therapeutics Program. […] The stock solutions were prepared in dimethyl sulfoxide (DMSO, Sigma-Aldrich, St. Louis, MO, cat. D2650) at 800-fold the tested concentration and stored at -70 degrees C prior to their use. All drugs and investigational agents were tested over a range starting from a high concentration at or near the clinical Cmax and decreasing in half-log increments. If the clinical Cmax for an agent had not been determined, the highest concentration tested was 10 microM.
# NCI60 Cell Culture. NCI60 cell lines were obtained from the NCI Developmental Therapeutics Program Tumor Repository. For each lot of cells, the Repository performed Applied Biosystems AmpFLSTR Identifiler testing with PCR amplification to confirm consistency with the published Identifier STR profile for each cell line. Cells were kept in continuous culture for no more than 20 passages. The optimal seeding densities for each of the cell lines at each time point assessed were determined prior to performing the concentration response studies. Briefly, the NCI60 human tumor lines were grown as monolayers in RPMI 1640 medium supplemented with 10% FBS and 2 mmol/L L-glutamine.
# An additional 9 lines were from the NCI60 cell line panel including MDA-MB-231 breast carcinoma, MDA-MB-468 breast carcinoma, MCF7 breast carcinoma, Hs578T breast carcinoma, MALME-3M melanoma, SK-MEL-2 melanoma, SK-OV-3 ovarian carcinoma, DU-145 prostate carcinoma, PC-3 prostate carcinoma, all cell lines along with major genetic alterations are listed on Table 2. Pooled donor human umbilical vein endothelial cells (HUVEC, Lonza, cat. CC-2519) and human mesenchymal stem cells (hMSC, Lonza, cat. PT-2501) were purchased from Lonza (Walkersville, MD).
# PDMR cell lines were grown in complete medium (DC medium): Dulbecco's modified Eagle's medium (DMEM)/F12 supplemented with 5% fetal bovine serum (FBS), 2 mM L-glutamine, 100 U/mL penicillin and 100 µg/ml streptomycin, 0.4 µg/ml hydrocortisone, 10 ng/ml epidermal growth factor (EGF) recombinant human protein, 24 µg/mL adenine, and 0.1 mg/mL primocin. During culture from frozen stock vials, PDMR cells were cultured in the same medium containing 10 µM Y-27632 (see Table 3). The PDCs were cultured in complete DMEM/F12 media without 10 microM Y-27632 dihydrochloride for at least two passages prior to the screen. The pooled donor HUVEC and hMSC were cultured in endothelial cell growth medium 2 (PromoCell, Heidelberg, Germany, cat. C-22011) and mesenchymal stem cell growth medium 2 (PromoCell, cat. C-28009), respectively. For all experiments, HUVEC and hMSC were used at passages </=5.
# […]
# [1] = second compound 0.1 µM, first compound 0.0316 µM
# [2] = second compound 0.1 µM, first compound 0.1 µM
# [3] = second compound 0.1 µM, first compound 0.316 µM
# [4] = second compound 0.1 µM, first compound 1 µM
# [5] = second compound 0.316 µM, first compound 0.0316 µM
# [6] = second compound 0.316 µM, first compound 0.1 µM
# [7] = second compound 0.316 µM, first compound 0.316 µM
# [8] = second compound 0.316 µM, first compound 1 µM
# [9] = second compound 1 µM, first compound 0.0316 µM
# [10] = second compound 1 µM, first compound 0.1 µM
# [11] = second compound 1 µM, first compound 0.316 µM
# [12] = second compound 1 µM, first compound 1 µM
# [13] = second compound 3.16 µM, first compound 0.0316 µM
# [14] = second compound 3.16 µM, first compound 0.1 µM
# [15] = second compound 3.16 µM, first compound 0.316 µM
# [16] = second compound 3.16 µM, first compound 1 µM
# [17] = second compound 10 µM, first compound 0.0316 µM
# [18] = second compound 10 µM, first compound 0.1 µM
# [19] = second compound 10 µM, first compound 0.316 µM
# [20] = second compound 10 µM, first compound 1 µM
smiles,measurement,setting,value
CC(=O)c1c(C)c2cnc(Nc3ccc(N4CCNCC4)cn3)nc2n(C2CCCC2)c1=O + CC(C)NCC(C(=O)N1CCN(c2ncnc3c2C(C)CC3O)CC1)c1ccc(Cl)cc1,IC50,second compound 0.1 µM,> 300 nM
same,IC50,second compound 0.316 µM,< 0.949 nM
same,IC50,second compound 1 µM,< 0.949 nM
same,IC50,second compound 3.16 µM,< 0.949 nM
same,IC50,second compound 10 µM,< 0.949 nM
same,"viability, T/C","second compound 0.1 µM, first compound 0.000949 µM",74.1%
same,"viability, T/C","second compound 0.1 µM, first compound 0.003 µM",63.7%
same,"viability, T/C","second compound 0.1 µM, first compound 0.00949 µM",51%
same,"viability, T/C","second compound 0.1 µM, first compound 0.03 µM",51.6%
same,"viability, T/C","second compound 0.1 µM, first compound 0.0949 µM",52.9%
same,"viability, T/C","second compound 0.1 µM, first compound 0.3 µM",48.2%
same,"viability, T/C","second compound 0.316 µM, first compound 0.000949 µM",44.5%
same,"viability, T/C","second compound 0.316 µM, first compound 0.003 µM",43.3%
same,"viability, T/C","second compound 0.316 µM, first compound 0.00949 µM",43.8%
same,"viability, T/C","second compound 0.316 µM, first compound 0.03 µM",40.1%
same,"viability, T/C","second compound 0.316 µM, first compound 0.0949 µM",33.8%
same,"viability, T/C","second compound 0.316 µM, first compound 0.3 µM",30.7%
same,"viability, T/C","second compound 1 µM, first compound 0.000949 µM",26.3%
same,"viability, T/C","second compound 1 µM, first compound 0.003 µM",23.8%
same,"viability, T/C","second compound 1 µM, first compound 0.00949 µM",19.6%
same,"viability, T/C","second compound 1 µM, first compound 0.03 µM",17.2%
same,"viability, T/C","second compound 1 µM, first compound 0.0949 µM",15.8%
same,"viability, T/C","second compound 1 µM, first compound 0.3 µM",14.8%
same,"viability, T/C","second compound 3.16 µM, first compound 0.000949 µM",15.3%
same,"viability, T/C","second compound 3.16 µM, first compound 0.003 µM",14.2%
same,"viability, T/C","second compound 3.16 µM, first compound 0.00949 µM",14.2%
same,"viability, T/C","second compound 3.16 µM, first compound 0.03 µM",13.3%
same,"viability, T/C","second compound 3.16 µM, first compound 0.0949 µM",11.3%
same,"viability, T/C","second compound 3.16 µM, first compound 0.3 µM",10.7%
same,"viability, T/C","second compound 10 µM, first compound 0.000949 µM",13.5%
same,"viability, T/C","second compound 10 µM, first compound 0.003 µM",12.9%
same,"viability, T/C","second compound 10 µM, first compound 0.00949 µM",12.5%
same,"viability, T/C","second compound 10 µM, first compound 0.03 µM",11.6%
same,"viability, T/C","second compound 10 µM, first compound 0.0949 µM",11.5%
same,"viability, T/C","second compound 10 µM, first compound 0.3 µM",10.8%
COc1c(OCCCN2CCOCC2)ccc2c3n(c(=NC(=O)c4cnc(N)nc4)nc12)CCN3 + CC(C)NCC(C(=O)N1CCN(c2ncnc3c2C(C)CC3O)CC1)c1ccc(Cl)cc1,IC50,second compound 0.1 µM,21.4 nM
same,IC50,second compound 0.316 µM,< 3.16 nM
same,IC50,second compound 1 µM,< 3.16 nM
same,IC50,second compound 3.16 µM,< 3.16 nM
same,IC50,second compound 10 µM,< 3.16 nM
same,"viability, T/C","second compound 0.1 µM, first compound 0.00316 µM",81.5%
same,"viability, T/C","second compound 0.1 µM, first compound 0.01 µM",59.7%
same,"viability, T/C",[1],48.1%
same,"viability, T/C",[2],18%
same,"viability, T/C",[3],6.89%
same,"viability, T/C",[4],4.7%
same,"viability, T/C","second compound 0.316 µM, first compound 0.00316 µM",45.1%
same,"viability, T/C","second compound 0.316 µM, first compound 0.01 µM",40%
same,"viability, T/C",[5],29.5%
same,"viability, T/C",[6],12.2%
same,"viability, T/C",[7],5.71%
same,"viability, T/C",[8],4.51%
same,"viability, T/C","second compound 1 µM, first compound 0.00316 µM",24.3%
same,"viability, T/C","second compound 1 µM, first compound 0.01 µM",18.7%
same,"viability, T/C",[9],14%
same,"viability, T/C",[10],8.53%
same,"viability, T/C",[11],5.57%
same,"viability, T/C",[12],4.27%
same,"viability, T/C","second compound 3.16 µM, first compound 0.00316 µM",15.1%
same,"viability, T/C","second compound 3.16 µM, first compound 0.01 µM",12.5%
same,"viability, T/C",[13],11.1%
same,"viability, T/C",[14],7.88%
same,"viability, T/C",[15],4.58%
same,"viability, T/C",[16],3.91%
same,"viability, T/C","second compound 10 µM, first compound 0.00316 µM",12.8%
same,"viability, T/C","second compound 10 µM, first compound 0.01 µM",11.5%
same,"viability, T/C",[17],10.3%
same,"viability, T/C",[18],6.13%
same,"viability, T/C",[19],4.33%
same,"viability, T/C",[20],4.03%
Cc1nc(NC(=O)N2CCCC2C(N)=O)sc1-c1ccnc(C(C)(C)C(F)(F)F)c1 (stereo not given) + CC(C)NCC(C(=O)N1CCN(c2ncnc3c2C(C)CC3O)CC1)c1ccc(Cl)cc1,IC50,second compound 0.1 µM,955 nM
same,IC50,second compound 0.316 µM,< 31.6 nM
same,IC50,second compound 1 µM,< 31.6 nM
same,IC50,second compound 3.16 µM,< 31.6 nM
same,IC50,second compound 10 µM,< 31.6 nM
same,"viability, T/C",[1],60.7%
same,"viability, T/C",[2],51.8%
same,"viability, T/C",[3],47.8%
same,"viability, T/C",[4],49.5%
same,"viability, T/C","second compound 0.1 µM, first compound 3.16 µM",41.8%
same,"viability, T/C","second compound 0.1 µM, first compound 10 µM",10.6%
same,"viability, T/C",[5],43.7%
same,"viability, T/C",[6],44.4%
same,"viability, T/C",[7],39.2%
same,"viability, T/C",[8],30.2%
same,"viability, T/C","second compound 0.316 µM, first compound 3.16 µM",24.6%
same,"viability, T/C","second compound 0.316 µM, first compound 10 µM",9.66%
same,"viability, T/C",[9],26.5%
same,"viability, T/C",[10],24.1%
same,"viability, T/C",[11],17.8%
same,"viability, T/C",[12],15.8%
same,"viability, T/C","second compound 1 µM, first compound 3.16 µM",12.5%
same,"viability, T/C","second compound 1 µM, first compound 10 µM",5.72%
same,"viability, T/C",[13],14.2%
same,"viability, T/C",[14],14.7%
same,"viability, T/C",[15],11.8%
same,"viability, T/C",[16],11.4%
same,"viability, T/C","second compound 3.16 µM, first compound 3.16 µM",8.54%
same,"viability, T/C","second compound 3.16 µM, first compound 10 µM",3.24%
same,"viability, T/C",[17],13.4%
same,"viability, T/C",[18],12.8%
same,"viability, T/C",[19],10.5%
same,"viability, T/C",[20],9.02%
same,"viability, T/C","second compound 10 µM, first compound 3.16 µM",7.87%
same,"viability, T/C","second compound 10 µM, first compound 10 µM",2.4%

# — PubChem BioAssay AID2060327 (Molecular Pharmacology Branch, DTP, NCI, 2025)
